The text below walks through data of PubChem BioAssay (NCI).

Common to all, as to assay: NCI anticancer screen, dose series, 48 h
Test [1] concerns MDA-MB-435.
The subject of test [2] is A498 renal.
Test [3] relates to BT-549 breast.
Test [4] concerns MDA-MB-231 breast.
The test system of test [5] is SK-MEL-2 melanoma.
The test system of test [6] is TK-10 renal.
Test [7] relates to HCT-116 colon.
The test system of test [8] is MDA-N.
In test [9] the test system is SW-620 colon.
The subject of test [10] is UACC-62 melanoma.

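Where inhibition never reached the appropriate level, the endpoint shown equals the highest concentration tested. Otherwise, values were interpolated linearly from a five-concentration, 48-hour dose response in 96-well plates. TGI is the concentration that stops growth completely.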 A value given as a limit tells only on which side of the number the result lay.

As to `CC(=O)OC1[C@@H](OC(C)=O)CN(OCc2ccccc2)C[C@H]1OC(C)=O` (stereo partly drawn), the TGI in test [1], in test [2], in test [3], in test [4], in test [5] and in test [6] was above 100 µM in each case. In addition, the TGI in test [7], in [8], in test [9] and in test [10] was above 100 µM throughout.

For `COc1ccc(-c2cc(-c3ccccc3)nc3c2CC(=O)Nc2ccccc2-3)cc1OC`, the TGI in test [1] is above 100 µM; in test [2], 50.5 µM; in test [3] it was above 100 µM; in [4], 6.21 µM; in [5] it was above 100 µM; in test [6], above 100 µM. Further, the TGI in test [8], in test [9] and in [10] was above 100 µM throughout.

Turning to `COC(=O)c1ccc(C)cc1CC1Cc2c(C)cccc2C1=O` (stereo not drawn), the TGI is 4.38 µM in test [1]; 24 µM in [2]; 21.1 µM in test [3]; 8.42 µM in [4]; 17.5 µM in test [5]; above 54.6 µM in test [6]. Besides, the TGI in [7] is 15.4 µM; in test [8], 4.82 µM; in test [9], above 48.7 µM; in [10] it was 22 µM.

As to `COCn1c(C)c(C)c2c(=O)oc(C)nc21`, the TGI in test [1], in test [2], in test [3], in test [4], in [5] and in [6] was above 100 µM throughout. The TGI in [7], in [8], in test [9] and in [10] was above 100 µM in each case.

With `C=CCN1C[C@@H](C)N([C@@H](c2ccc(C(=O)N(CC)CC)cc2)c2cccc(OC)c2)C[C@@H]1C`, the TGI in test [1], in [2], in [3], in test [4], in test [5] and in test [7] was above 100 µM each time. The TGI in [8], in test [9] and in [10] was above 100 µM each time.

On to `COC(=O)C1=COc2c(n(C)c3ccccc23)-c2ccccc21`, for which the TGI in test [1], in test [2], in [3], in [4], in test [5] and in test [6] was above 100 µM in each case. The TGI in test [7], in [8], in test [9] and in test [10] was above 100 µM in each case.

Turning to `Cc1nc2ccccc2n1Cc1nnc2n1N=C(c1ccccc1)CS2`, the TGI in test [1] is above 100 µM; in test [2], above 100 µM; in test [3], 80.8 µM; in [4], 62.9 µM; in test [5], 40.7 µM; in test [6], above 100 µM. Also, the TGI is above 100 µM in [7], above 100 µM in test [8], above 100 µM in [9] and 99.4 µM in test [10].

Regarding `CC(=O)OCCOCCN1CCN(c2c(O)c3c(c(O)c2Cl)C(=O)C=CC3=O)CC1`, the TGI in [1] came out at 1.95 µM; in [2] it was 3.56 µM; in [3], 2.21 µM; in test [4], 1.09 µM; in test [5], 3.26 µM; in test [6], 1.62 µM. The TGI amounted to 0.72 µM in [7], 1.79 µM in [8], 0.475 µM in test [9] and 2.81 µM in test [10].

For `C[N+](C)(C)C(C1=CCCC1=O)c1ccccc1` (stereo not drawn), the TGI in test [1] is 72.7 µM; in [2], above 100 µM; in test [3], 95.5 µM; in [4], 75.5 µM; in [5] it was above 100 µM; in test [6], above 100 µM. Further, the TGI in test [7] is 32.1 µM; in test [8], above 100 µM; in test [9], 70.4 µM; in test [10] it was 38.8 µM.

`Nc1ccc(OCCCc2c(-c3ccccc3)nc(N)[nH]c2=O)cc1`: the TGI in [1], in test [2], in test [3], in test [4], in test [7] and in [8] was above 100 µM in each case. The TGI in test [9] is above 100 µM; in [10], 43 µM.

In the case of `S=C(c1c[nH]c2ccccc12)N1CCCCC1`, the TGI in test [1], in test [2], in [3], in test [4], in test [5] and in test [6] was above 100 µM each time. In addition, the TGI in [7], in test [8], in test [9] and in test [10] was above 100 µM throughout.

Regarding `O=c1[nH]c(=O)n2n1C1C=CC2CC1`, the TGI in [1], in [2], in test [3], in [4], in [5] and in test [6] was above 100 µM each time. The TGI in test [7], in test [8], in [9] and in test [10] was above 100 µM each time.

Turning to `COc1ccc(/C=C2\CN(C)CC3C2=NN(c2ccccc2)C3c2ccc(OC)cc2)cc1` (stereo not drawn), the TGI in test [1] was above 100 µM; in [2] it was above 100 µM; in test [3], above 100 µM; in test [6] it was 91.8 µM; in test [7], above 100 µM; in [8], above 100 µM. Besides, the TGI in test [9] and in [10] was above 100 µM each time.

With `O=C1C=C2CC[C@H]3[C@@H]4CC[C@H](Oc5c6ccccc6nc6ccccc56)[C@H]4CC[C@@H]3[C@H]2CC1`, the TGI in test [1], in test [3], in test [4], in test [5], in test [6] and in test [7] was above 100 µM in each case. The figures for the TGI in test [8], in test [9] and in [10] were 75.2 µM, above 100 µM and above 100 µM, respectively.
